The values below come from patent publication US20090253633A1, “Novel Combinations of DNAK Inhibitors With Known Antibacterial Agents” (priority 2005, published 2009).

One may read the MIC as the lowest concentration that inhibits growth of the organism.

Bridges are numbered along the chain shown (N, C = ends). Roman numbers before positions name the chains, in order. [ ]: non-standard residue; d: D form. NMeR = CN[C@@H](CCCNC(=N)N)C(=O)O; Api = NC1(C(=O)O)CCNCC1; Dab = NCC[C@H](N)C(=O)O

In this experiment the test system is E. coli isolate CHP-04-002EC. The experiment is described as follows: MIC against the E. coli test isolate. It is filed as cell-based. As to conditions: stated as 1×MIC. The procedure:
Growth inhibition assays were performed using the Gram negative E. coli isolate CHP-04-002EC obtained from Laboratory Specialists, Inc. (Westlake, Ohio). […] Untreated bacterial culture served as growth control. At 4, 8, 12 and 24 hrs post-application, the cultures were serially diluted, plated and allowed to grow overnight. Colony forming units (CFU) were determined by counting the number of newly grown colonies and multiplying by the dilution factor.

“I: H-[Api]DKGSYLPRPTPPRPIYN[NMeR]N[Dab]-NH2 / II: H-[Api]DKGSYLPRPTPPRPIYN[NMeR]N (amide I:21-II:C) [CHP-105]” displayed an MIC of 64 µg/mL.
